{"source": "patent US20150105252A1", "about": "“SUBSTITUTED PYRAZOLES AS HERBICIDES” (E I DU PONT DE NEMOURS AND COMPANY, priority 2013, published 2015)", "key": {"[1]": {"test_system": "chickweed", "assay": "Test D preemergence", "assay_type": "in vivo, Stellaria media", "details": "Preemergence, scale 0 to 100", "in_short": "(§1)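 Formulation was a non-phytotoxic solvent mixture plus surfactant, applied either to soil at planting (silt loam, preemergence) or to foliage of 2–18 cm plants (postemergence). Visual evaluation versus controls followed at 14–21 days, scored 0–100.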"}, "[2]": {"test_system": "deadnettle", "assay": "Test D preemergence", "assay_type": "in vivo, Lamium amplexicaule", "details": "Preemergence, scale 0 to 100", "in_short": "as §1"}, "[3]": {"test_system": "buckwheat, wild", "assay": "Test D preemergence", "assay_type": "in vivo, Polygonum convolvulus", "details": "Preemergence, scale 0 to 100", "in_short": "as §1"}, "[4]": {"test_system": "windgrass", "assay": "Test D preemergence", "assay_type": "in vivo, Apera spica-venti", "details": "Preemergence, scale 0 to 100", "in_short": "as §1"}, "[5]": {"test_system": "bromegrass, downy", "assay": "Test D postemergence", "assay_type": "in vivo, Bromus tectorum", "details": "scale 0 to 100", "in_short": "as §1"}, "[6]": {"test_system": "field poppy", "assay": "Test D postemergence", "assay_type": "in vivo, Papaver rhoeas", "details": "scale 0 to 100", "in_short": "as §1"}, "[7]": {"test_system": "deadnettle", "assay": "Test D postemergence", "assay_type": "in vivo, Lamium amplexicaule", "details": "scale 0 to 100", "in_short": "as §1"}, "[8]": {"test_system": "pigweed", "assay": "Test D postemergence", "assay_type": "in vivo, Amaranthus retroflexus", "details": "scale 0 to 100", "in_short": "as §1"}, "[9]": {"test_system": "buckwheat, wild", "assay": "Test D postemergence", "assay_type": "in vivo, Polygonum convolvulus", "details": "scale 0 to 100", "in_short": "as §1"}, "[10]": {"test_system": "mustard, wild", "assay": "Test D postemergence", "assay_type": "in vivo, Sinapis arvensis", "details": "scale 0 to 100", "in_short": "as §1"}, "[11]": {"test_system": "radish, wild", "assay": "Test D postemergence", "assay_type": "in vivo, Raphanus raphanistrum", "details": "scale 0 to 100", "in_short": "as §1"}, "[12]": {"test_system": "windgrass", "assay": "Test D postemergence", "assay_type": "in vivo, Apera spica-venti", "details": "scale 0 to 100", "in_short": "as §1"}, "[13]": {"test_system": "morningglory", "assay": "Test F preemergence", "assay_type": "in vivo, Ipomoea coccinea", "excerpt": "Seeds of plant species selected from corn (Zea mays), soybean (Glycine max), velvetleaf (Abutilon theophrasti), lambsquarters (Chenopodium album), wild poinsettia (Euphorbia heterophylla), pigweed, palmer (palmer pigweed, Amaranthus palmeri), common waterhemp (Amaranthus rudis), surinam grass (Brachiaria decumbens), large crabgrass (Digitaria sanguinalis), crabgrass, Brazil (Brazilian crabgrass, Digitaria horizontalis), fall panicum (Panicum dichotomiflorum), giant foxtail (Setaria faberii), green foxtail (Setaria viridis), goosegrass (Eleusine indica), johnsongrass (Sorghum halepense), common ragweed (Ambrosia elation), barnyardgrass (Echinochloa crus-galli), southern sandbur (Cenchrus echinatus), arrowleaf sida (Sida rhombifolia), Italian ryegrass (Lolium multiflorum), dayflower, VA (Virginia (VA) dayflower, Commelina virginica), field bindweed (Convolvulus arvensis), cocklebur (common cocklebur, Xanthium strumarium), morningglory (Ipomoea coccinea), nightshade (eastern black nightshade, Solanum ptycanthum), kochia (Kochia scoparia), yellow nutsedge (Cyperus esculentus), and hairy beggarticks (Bidens pilosa), were planted into a silt loam soil and treated preemergence with test chemicals formulated in a non-phytotoxic solvent mixture which included a surfactant.\nAt the same time, plants from these crop and weed species and also horseweed (Canada horseweed, Conyza canadensis), smartweed (ladysthumb smartweed, Polygonum persicaria), waterhemp_RES1, (ALS & Triazine resistant common waterhemp, Amaranthus rudis), and waterhemp_RES2, (ALS & HPPD resistant common waterhemp, Amaranthus rudis) were treated with postemergence applications of test chemicals formulated in the same manner. Plants ranged in height from 2 to 18 cm for postemergence treatments (1- to 4-leaf stage). Treated plants and controls were maintained in a greenhouse for 14 to 21 days, after which time all species were compared to controls and visually evaluated. Plant response ratings, summarized in Table F, are based on a scale of 0 to 100 where 0 is no effect and 100 is complete control. A dash (-) response means no test result."}}, "data": [{"compound": "CCCc1cc(C(=O)NC(C)C)nn1Cc1cc(C(F)(F)F)nn1C", "note": "[Compound 201]", "values": [{"measurement": "Plant response rating, Chickweed", "setting": "[1]; 31 g ai/ha", "value": 80}, {"measurement": "Plant response rating, Chickweed", "setting": "[1]; 62 g ai/ha", "value": 100}, {"measurement": "Plant response rating, Chickweed", "setting": "[1]; 125 g ai/ha", "value": 100}, {"measurement": "Plant response rating, Chickweed", "setting": "[1]; 250 g ai/ha", "value": 100}, {"measurement": "Plant response rating, Deadnettle", "setting": "[2]; 31 g ai/ha", "value": 100}, {"measurement": "Plant response rating, Deadnettle", "setting": "[2]; 62 g ai/ha", "value": 100}, {"measurement": "Plant response rating, Deadnettle", "setting": "[2]; 125 g ai/ha", "value": 100}, {"measurement": "Plant response rating, Deadnettle", "setting": "[2]; 250 g ai/ha", "value": 100}, {"measurement": "Plant response rating, Buckwheat, Wild", "setting": "[3]; 31 g ai/ha", "value": 15}, {"measurement": "Plant response rating, Buckwheat, Wild", "setting": "[3]; 62 g ai/ha", "value": 100}, {"measurement": "Plant response rating, Buckwheat, Wild", "setting": "[3]; 250 g ai/ha", "value": 100}, {"measurement": "Plant response rating, Windgrass", "setting": "[4]; 62 g ai/ha", "value": 100}, {"measurement": "Plant response rating, Windgrass", "setting": "[4]; 125 g ai/ha", "value": 100}, {"measurement": "Plant response rating, Windgrass", "setting": "[4]; 250 g ai/ha", "value": 100}, {"measurement": "Bromegrass, Downy plant response rating", "setting": "[5]; Postemergence, 31 g ai/ha", "value": 30}, {"measurement": "Bromegrass, Downy plant response rating", "setting": "[5]; Postemergence, 125 g ai/ha", "value": 35}, {"measurement": "Bromegrass, Downy plant response rating", "setting": "[5]; Postemergence, 250 g ai/ha", "value": 50}, {"measurement": "Bromegrass, Downy plant response rating", "setting": "[5]; postemergence, 62 g ai/ha", "value": 30}, {"measurement": "Field Poppy plant response rating", "setting": "[6]; Postemergence, 31 g ai/ha", "value": 55}, {"measurement": "Field Poppy plant response rating", "setting": "[6]; Postemergence, 125 g ai/ha", "value": 60}, {"measurement": "Field Poppy plant response rating", "setting": "[6]; Postemergence, 250 g ai/ha", "value": 65}, {"measurement": "Field Poppy plant response rating", "setting": "[6]; postemergence, 62 g ai/ha", "value": 55}, {"measurement": "Deadnettle plant response rating", "setting": "[7]; Postemergence, 31 g ai/ha", "value": 55}, {"measurement": "Deadnettle plant response rating", "setting": "[7]; Postemergence, 125 g ai/ha", "value": 60}, {"measurement": "Deadnettle plant response rating", "setting": "[7]; Postemergence, 250 g ai/ha", "value": 65}, {"measurement": "Deadnettle plant response rating", "setting": "[7]; postemergence, 62 g ai/ha", "value": 55}, {"measurement": "Pigweed plant response rating", "setting": "[8]; Postemergence, 31 g ai/ha", "value": 70}, {"measurement": "Pigweed plant response rating", "setting": "[8]; Postemergence, 125 g ai/ha", "value": 75}, {"measurement": "Pigweed plant response rating", "setting": "[8]; Postemergence, 250 g ai/ha", "value": 80}, {"measurement": "Pigweed plant response rating", "setting": "[8]; postemergence, 62 g ai/ha", "value": 70}, {"measurement": "Buckwheat, Wild plant response rating", "setting": "[9]; Postemergence, 31 g ai/ha", "value": 50}, {"measurement": "Buckwheat, Wild plant response rating", "setting": "[9]; Postemergence, 125 g ai/ha", "value": 65}, {"measurement": "Buckwheat, Wild plant response rating", "setting": "[9]; Postemergence, 250 g ai/ha", "value": 70}, {"measurement": "Buckwheat, Wild plant response rating", "setting": "[9]; postemergence, 62 g ai/ha", "value": 50}, {"measurement": "Mustard, Wild plant response rating", "setting": "[10]; Postemergence, 31 g ai/ha", "value": 75}, {"measurement": "Mustard, Wild plant response rating", "setting": "[10]; Postemergence, 125 g ai/ha", "value": 85}, {"measurement": "Mustard, Wild plant response rating", "setting": "[10]; Postemergence, 250 g ai/ha", "value": 90}, {"measurement": "Mustard, Wild plant response rating", "setting": "[10]; postemergence, 62 g ai/ha", "value": 75}, {"measurement": "Radish, Wild plant response rating", "setting": "[11]; Postemergence, 31 g ai/ha", "value": 65}, {"measurement": "Radish, Wild plant response rating", "setting": "[11]; Postemergence, 125 g ai/ha", "value": 65}, {"measurement": "Radish, Wild plant response rating", "setting": "[11]; Postemergence, 250 g ai/ha", "value": 65}, {"measurement": "Radish, Wild plant response rating", "setting": "[11]; postemergence, 62 g ai/ha", "value": 65}, {"measurement": "Windgrass plant response rating", "setting": "[12]; Postemergence, 31 g ai/ha", "value": 20}, {"measurement": "Windgrass plant response rating", "setting": "[12]; Postemergence, 125 g ai/ha", "value": 30}, {"measurement": "Windgrass plant response rating", "setting": "[12]; Postemergence, 250 g ai/ha", "value": 45}, {"measurement": "Windgrass plant response rating", "setting": "[12]; postemergence, 62 g ai/ha", "value": 20}, {"measurement": "Plant response rating, Morningglory", "setting": "[13]; Preemergence, 16 g ai/ha, scale 0 to 100", "value": 0}, {"measurement": "Plant response rating, Morningglory", "setting": "[13]; Preemergence, 62 g ai/ha, scale 0 to 100", "value": 25}, {"measurement": "Plant response rating, Morningglory", "setting": "[13]; Preemergence, 125 g ai/ha, scale 0 to 100", "value": 65}, {"measurement": "Plant response rating, Morningglory", "setting": "[13]; Preemergence, 250 g ai/ha, scale 0 to 100", "value": 80}, {"measurement": "Plant response rating, Morningglory", "setting": "[13]; preemergence, 16 g ai/ha, scale 0 to 100, 100 is complete control", "value": 0}]}]}
